The record followed here is PMC10610134, “Verubulin (Azixa) Analogues with Increased Saturation: Synthesis, SAR and Encapsulation in Biocompatible Nanocontainers Based on Ca^2+ or Mg^2+ Cross-Linked Alginate” (Pharmaceuticals, 2023).

Some results are limits rather than exact numbers.

Data set [1] relates to MCF7′, A549, VA13, HEK293T cell lines. Nature of the data set: MTT cytotoxicity, SAR statements over the cell line panel. In kind it is cell-based, human. Conditions: for cytotoxicity, in words: MTT, 64 h. The source says:
(§1) The obtained series of verubulin analogues 2a–r (which also included three by-products isolated in the reactions according to Scheme 2) were initially evaluated for cytotoxicity against commonly used human breast cancer cell line MCF7′ (fast-growth subclone), human lung epithelial carcinoma cell line A549 and etiologically non-cancer immortalized lung fibroblast cell line VA13 (WI38 subline 2RA). Cytotoxicity against immortalized human embryonic kidney cell line HEK293T, characterized by a high growth rate, was also studied regarding cytotoxicity against non-cancerous fast-growth cells. A standard MTT assay was performed; verubulin (1) served as a positive reference. The data obtained are presented in Table 1 (for dose–response curves, see Supplementary Materials).
(§2) The cytotoxicity of the substances was tested using the 3-(4,5-dimethylthiazol-2-yl)2,5-diphenyl tetrazolium bromide (MTT) assay with some modifications. A total of 2500 cells per well for the MCF7′, HEK293T, A549 cell lines or 4000 cells per well for the VA-13 cell line were plated out in 135 μL of DMEM-F12 media (Gibco, Thermo Fisher Scientific, Waltham, MA, USA) in a 96-well plate and incubated in the 5% CO2 incubator for the first 20 h without treatment. Then, 15.8 μL of media–DMSO solutions of tested substances (final DMSO concentrations in the media were 0.5% or less) was added to the cells (triplicate each) and cells were treated for 64 h with 0.023 mg/L–50 mg/L (eight dilutions) of compounds 2f,n,o,r; 1.14 μg/L–2.5 mg/L (eight dilutions) of compounds 2a,b,d,g,h,k,l,p,q; 57.2 ng/L–125 μg/L (eight dilutions) of compounds 2e,i,j; 22.9 ng/L–50 μg/L (eight dilutions) of compounds 1,2c,m. Doxorubicin was used as a control substance. Then, the MTT reagent (Paneco LLC, Moscow, Russia) was added to cells up to a final concentration of 0.5 g/L (10 × stock solution in PBS was used) and incubated for 2 h at 37 °C in the incubator, under an atmosphere of 5% CO2. Then, the MTT solution was discarded, and 140 μL of DMSO (PharmaMed LLC, Moscow, Russia) was added. The plates were swayed on a shaker (120 rpm) to dissolve the formazan. The absorbance was measured using a microplate reader (VICTOR X5 Light Plate Reader, PerkinElmer, Waltham, MA, USA) at a wavelength of 555 nm (in order to measure formazan concentration). The results were used to construct dose–response graphs and to estimate IC50 values (IC50 is the concentration resulting in half of the maximal cytotoxic effect) with GraphPad Prism V, GraphPadSoftware, Inc., San Diego, CA, USA.

The test system of data set [2] is human breast cancer cell line MCF7′. The data set is described as follows: MTT cytotoxicity assay, MCF7′. As to conditions: MCF7, 64 h treatment, MTT, read-out: IC50, nM MCF7′. In kind it is cell-based.
Description: as §1
(§3) Human breast cancer cell line MCF7′ and human lung adenocarcinoma cell line A549 were kindly provided by Dr. S. Dmitriev (Lomonosov Moscow State University), immortalized human fibroblast cell line VA13 (WI38 subline 2RA) was kindly provided by Dr. M. Rubtsova (Lomonosov Moscow State University), human embryonic kidney HEK293T cell line was kindly provided by Dr. E. Knyazhanskaya (Lomonosov Moscow State University). MCF7′, VA13, A549 and HEK293T cell lines were maintained in DMEM/F-12 (Thermo Fisher Scientific, Waltham, MA, USA) culture medium containing 10% fetal bovine serum (Thermo Fisher Scientific, Waltham, MA, USA) and 50 μg/mL penicillin and 0.05 mg/mL streptomycin at 37 °C (Thermo Fisher Scientific, Waltham, MA, USA) in 5% CO2. Cells were maintained at 37 °C in a humidified MCO-18AC incubator (Sanyo, Tokyo, Japan) supplied with 5% CO2. Cell cultures were tested for the absence of mycoplasma and validated by STR.
as §2

The subject of data set [3] is human lung epithelial carcinoma cell line A549. Nature of the data set: MTT cytotoxicity assay, A549. In kind it is cell-based. Conditions: A549, 64 h treatment, MTT, read-out: IC50, nM A549.
Description: as §1, §3, §2

The subject of data set [4] is immortalized human embryonic kidney cell line HEK293T. The data set is described as follows: MTT cytotoxicity assay, HEK293T. In kind it is cell-based. Conditions: HEK-293T, 64 h treatment, MTT, read-out: IC50, nM HEK293T.
Description: as §1, §3, §2
(Formazan colour is commonly taken as a measure of viable cells.)

Data set [5] deals with immortalized lung fibroblast cell line VA13 (WI38 subline 2RA). Nature of the data set: MTT cytotoxicity assay, VA13. In kind it is cell-based. As to conditions: Homo sapiens, VA-13; 64 h treatment, MTT; read-out: IC50, nM VA13.
Description: as §1, §3, §2

Data set [6] deals with microtubules in carcinoma A549 cells. The data set is described as follows: Immunofluorescent microscopy of microtubules. In kind it is cell-based, human. The method, then:
Since verubulin is known to stimulate microtubule disassociation, we performed an immunofluorescent microscopy study to determine the response of microtubule dynamics in carcinoma A549 cells to the treatment with representative compounds 2b,c,e. […] Aberrant cell morphology—contraction and rounding (Figure 2A,B) or contraction and elongation (Figure 2C)—was also observed.
A549 cells were seeded on coverslips (treated with poly-l-lysine at a concentration of 33 mg/L for an hour). Compounds were added up to the corresponding concentration after 24 h attachment and growth of the cells. Then, cells were incubated 24 h.
The cells were fixed with methanol (precooled in liquid nitrogen for 20 min), no additional permeabilization was performed. To prevent non-specific binding, cells were incubated with 4% BSA in PBS for one hour. Then, a solution of mouse monoclonal antibodies against alpha-tubulin cross-linked with Alexa 488 fluoroform (Thermo Fisher Scientific, Waltham, MA, USA, 32-2588) at a concentration of 5 μg/mL in 1% BSA solution in PBS was added to the cells, and the slides were incubated at +5 °C in a water chamber for 24 h. After the end of the incubation time, the cells were washed several times with PBS buffer solution and fixed on a glass slide with Moviol. Next day, cells were imaged with a ZEISS LSM 900 (ZEISS Microscopy, GmbH, Germany) and images processed with ImageJ.

As usually defined, the IC50 is the concentration at which inhibition is half-maximal. In general, melting point refers to the temperature of the solid-liquid transition. On to `CN(c1ccccc1)c1nc(N)nc2c1CCCC2` [Compound 2g, N^4-Methyl-N^4-phenyl-5,6,7,8-tetrahydroquinazolinyl-2,4-diamine], for which the melting point lay in the range of 128 to 129 °C. Besides, the “reduction of cytotoxicity on removal of para-methoxy substituent” value in data set [1] (2a vs. 2c, 2g vs. 2i) was 2–3 orders of magnitude. Besides, the IC50 in data set [2] came out at 28600 nM. Further, the IC50 in data set [3] was determined as 36400 nM. For the same compound, in data set [4], the IC50 turned out to be 26300 nM. Also, the IC50 in data set [5] is 26900 nM.
For the compound `COc1ccc2c(c1)CCCN2c1nc2c(c(N3CCCc4cc(OC)ccc43)n1)CCCC2` [Compound 2p, 2,4-Bis(6-methoxy-3,4-dihydroquinolin-1(2H)-yl)-5,6,7,8-tetrahydroquinazoline], the “cytotoxicity, in words” value in data set [1] is given as “moderately cytotoxic”. The IC50 in data set [2] was 660 ± 150 nM; in data set [3], 640 ± 76 nM; in data set [4], 510 ± 33 nM; in data set [5], 290 ± 74 nM.
`Cc1nc2c(c(N3CCCc4ccc([N+](=O)[O-])cc43)n1)CCCC2` [Compound 2f, 2-Methyl-4-(7-nitro-3,4-dihydroquinolin-1(2H)-yl)-5,6,7,8-tetrahydroquinazoline] registered a melting point of 184 to 185 °C. Moreover, in data set [1], the “cytotoxicity, in words” value was “inactive”. The IC50 in data set [2] is greater than 50000 nM. The IC50 in data set [3] was greater than 50000 nM. Further, the IC50 in data set [4] is greater than 50000 nM. For the same compound, the IC50 in data set [5] was greater than 50000 nM.
As to `COc1ccc2c(c1)CCCN2c1nc2c(c(OC(C)C)n1)CCCC2` [Compound 2r, 4-Isopropoxy-2-(6-methoxy-3,4-dihydroquinolin-1(2H)-yl)-5,6,7,8-tetrahydroquinazoline], the “cytotoxicity, in words” value in data set [1] is reported as “moderately cytotoxic”. Further, the IC50 in data set [2] stood at 24200 nM; in data set [3] it was 23800 nM; in data set [4], 53500 nM; in data set [5], 118000 nM.
As for `Cc1nc2c(c(N3CCCc4ccccc43)n1)CCCC2` [Compound 2d, 4-(3,4-Dihydroquinolin-1(2H)-yl)-2-methyl-5,6,7,8-tetrahydroquinazoline], the melting point was 118 to 119 °C. Also, the IC50 in data set [2] is 9100 ± 2200 nM. Besides, in data set [3], the IC50 was determined as 12600 nM. Besides, the IC50 in data set [4] worked out at 7300 ± 1200 nM. The IC50 in data set [5] was 3000 ± 700 nM.
As to `COc1ccc2c(c1)CCCN2c1nc(OC(C)C)nc2c1CCCC2` [Compound 2q, 2-Isopropoxy-4-(6-methoxy-3,4-dihydroquinolin-1(2H)-yl)-5,6,7,8-tetrahydroquinazoline], the “cytotoxicity, in words” value in data set [1] is on record as “largely restored”. Further, the IC50 in data set [2] came out at 310 ± 22 nM; in data set [3], 360 ± 34 nM; in data set [4], 250 ± 11 nM; in data set [5], 160 ± 20 nM.
As to `COc1ccc2c(c1)CCCN2c1nc(C)nc2c1CCCCC2` [Compound 2l, 4-(6-Methoxy-3,4-dihydroquinolin-1(2H)-yl)-2-methyl-6,7,8,9-tetrahydro-5H-cyclohepta[d]pyrimidine], the melting point was in the range of 122 to 123 °C. In addition, in data set [1] (conformational restriction of 2k), the “activity relative to 2k” value is listed as “seven to twelve times less active”. Further, the IC50 in data set [2] turned out to be 360 ± 70 nM. Further, the IC50 in data set [3] worked out at 790 ± 19 nM. Further, the IC50 in data set [4] came out at 450 ± 100 nM. In addition, the IC50 in data set [5] amounted to 260 ± 80 nM.
Consider `Cc1ccc(N(C)c2nc(C)nc3c2CCCC3)cc1` [Compound 2b, N,2-Dimethyl-N-(4-methylphenyl)-5,6,7,8-tetrahydroquinazolin-4-amine], for which the melting point lay in the range of 91 to 92 °C. Besides, the “effect on microtubules (MTs)” value in data set [6] (10 μM, 24 h, A549) is recorded as “depolymerization of MTs”. For the same compound, the effect on microtubules result in data set [6] (5–10 μM, 24 h, A549) is recorded as “pronounced or complete disruption of microtubules”. In addition, in data set [2], the IC50 was 97 ± 7 nM. Further, the IC50 in data set [3] was found to be 110 ± 8 nM. The IC50 in data set [4] was determined as 89 ± 3 nM. Moreover, the IC50 in data set [5] is 62 ± 8 nM.
As to `COc1ccc(N(C)c2nc(C)nc3c2CCCCC3)cc1` [Compound 2k, N-(4-Methoxyphenyl)-N,2-dimethyl-6,7,8,9-tetrahydro-5H-cyclohepta[d]pyrimidin-4-amine], the melting point lay in the range of 92 to 93 °C. Also, the “selectivity towards tumor cells” value in data set [1] (pair A549/VA13) is “no selectivity”. Further, the “reduction of cytotoxicity relative to 2c” value in data set [1] (ring B enlarged to seven-membered) is “more than 10 times”. In addition, the IC50 in data set [2] stood at 53 ± 7 nM. For the same compound, the IC50 in data set [3] amounted to 79 ± 10 nM. Also, in data set [4], the IC50 was 39 ± 6 nM. In data set [5], the IC50 stood at 22 ± 6 nM.
In the case of `COc1ccc(/C=C\c2cc(OC)c(OC)c(OC)c2)cc1O` [CA-4, combretastatin A-4, reference compound], in data set [6] (0.03 μM, A549, positive control), the “effect on microtubules (MTs)” value is “full depolymerization of MTs”.
As to `COc1ccc2c(c1)CCCN2c1nc(O)nc2c1CCCC2` [Compound 2o, 2-Hydroxy-4-(6-methoxy-3,4-dihydroquinolin-1(2H)-yl)-5,6,7,8-tetrahydroquinazoline], the “cytotoxicity, in words” value in data set [1] is recorded as “complete loss of cytotoxicity”. Moreover, the concentration for half-maximal inhibition (IC50) in data set [2], in data set [3], in data set [4] and in data set [5] was greater than 50000 nM each time.
As for `COc1ccc(N(C)c2nc3c(c(N(C)c4ccc(OC)cc4)n2)CCCC3)cc1` [Compound 2n, N,N′-bis(4-methoxyphenyl)-N,N′-dimethyl-5,6,7,8-tetrahydroquinazolin-2,4-diamine], the “cytotoxicity, in words” value in data set [1] is “moderately cytotoxic”. Moreover, the IC50 amounted to 2500 ± 140 nM in data set [2], 3270 ± 290 nM in data set [3], 1720 ± 68 nM in data set [4] and 2290 ± 160 nM in data set [5].
With `Cc1ccc(N(C)c2nc(N)nc3c2CCCC3)cc1` [Compound 2h, N^4-Methyl-N^4-(4-methylphenyl)-5,6,7,8-tetrahydroquinazolinyl-2,4-diamine], the melting point lay within 135 to 136 °C. For the same compound, the IC50 in data set [2] turned out to be 210 ± 15 nM. Moreover, the IC50 in data set [3] worked out at 310 ± 23 nM. The IC50 in data set [4] amounted to 170 ± 18 nM. Besides, the IC50 in data set [5] turned out to be 150 ± 14 nM.
